Earlier results in PubChem BioAssay AID1259409 (Chemical Carcinogenesis Research Information System (CCRIS), 2018).

Test system: rodent chemically induced tumor inhibition, incidence and multiplicity
Assay: CCRIS tumor inhibitor studies
Conditions: Route [Inhibitor]: ORAL, Species: HAMSTER, Promoter: NONE USED

## CC1=C(/C=C/C(C)=C/C=C/C(C)=C/C(=O)NCCO)C(C)(C)CCC1
Carcinogen: N-NITROBIS(2-OXOPROPYL)AMINE, 60559-38-4, Dose [Inhibitor]: 0.5 OR 1.0 MMOL/KG DIET DAILY STARTING 1 WK AFTER CARCINOGEN TREATMENT AND CONTINUING THROUGH THE END OF THE STUDY (STUD, Strain/Sex: SYRIAN/MALE, Target Tissue: Type of Lesion: PANCREAS: DUCTULAR CARCINOMA, Dose [Carcinogen]: 10 MG/KG BW ONCE
  tumour outcome (control, treated, inhibition, significance): 4/22 (18%), 7/37 (19%), -6%, not significant
Carcinogen: N-NITROBIS(2-OXOPROPYL)AMINE, 60559-38-4, Dose [Inhibitor]: 0.5 OR 1.0 MMOL/KG DIET DAILY STARTING 1 WK AFTER CARCINOGEN TREATMENT AND CONTINUING THROUGH THE END OF THE STUDY (STUD, Strain/Sex: SYRIAN/MALE, Target Tissue: Type of Lesion: PANCREAS: DUCTULAR CARCINOMA, Dose [Carcinogen]: 40 MG/KG BW ONCE
  tumour outcome (control, treated, inhibition, significance): 5/24 (21%), 20/42 (48%), -129%, not significant
Carcinogen: N-NITROBIS(2-OXOPROPYL)AMINE, 60559-38-4, Dose [Inhibitor]: 0.5 OR 1.0 MMOL/KG IN DIET STARTING 1 WK AFTER CARCINOGEN TREATMENT AND CONTINUING THROUGH THE END OF THE STUDY (STUDY D, Strain/Sex: SYRIAN/FEMALE, Target Tissue: Type of Lesion: LIVER: BENIGN TUMOR, Dose [Carcinogen]: 40 MG/KG BW ONCE
  tumour outcome (control, treated, inhibition, significance): 4/20 (20%), 17/35 (49%), -145%, not significant
Carcinogen: N-NITROBIS(2-OXOPROPYL)AMINE, 60559-38-4, Dose [Inhibitor]: 0.5 OR 1.0 MMOL/KG IN DIET STARTING 1 WK AFTER CARCINOGEN TREATMENT AND CONTINUING THROUGH THE END OF THE STUDY (STUDY D, Strain/Sex: SYRIAN/FEMALE, Target Tissue: Type of Lesion: PANCREAS: DUCTULAR ADENOMA, Dose [Carcinogen]: 10 MG/KG BW ONCE
  tumour outcome (control, treated, inhibition, significance): 5/23 (23%), 10/37 (27%), -17%, not significant
Carcinogen: N-NITROBIS(2-OXOPROPYL)AMINE, 60559-38-4, Dose [Inhibitor]: 0.5 OR 1.0 MMOL/KG IN DIET STARTING 1 WK AFTER CARCINOGEN TREATMENT AND CONTINUING THROUGH THE END OF THE STUDY (STUDY D, Strain/Sex: SYRIAN/FEMALE, Target Tissue: Type of Lesion: PANCREAS: DUCTULAR ADENOMA, Dose [Carcinogen]: 40 MG/KG BW ONCE
  tumour outcome (control, treated, inhibition, significance): 12/20 (60%), 27/33 (82%), -37%, not significant
Carcinogen: N-NITROBIS(2-OXOPROPYL)AMINE, 60559-38-4, Dose [Inhibitor]: 0.5 OR 1.0 MMOL/KG IN DIET STARTING 1 WK AFTER CARCINOGEN TREATMENT AND CONTINUING THROUGH THE END OF THE STUDY (STUDY D, Strain/Sex: SYRIAN/FEMALE, Target Tissue: Type of Lesion: PANCREAS: DUCTULAR CARCINOMA, Dose [Carcinogen]: 40 MG/KG BW ONCE
  tumour outcome (control, treated, inhibition, significance): 6/20 (30%), 8/33 (24%), 20%, not significant
Carcinogen: N-NITROBIS(2-OXOPROPYL)AMINE, 60559-38-4, Dose [Inhibitor]: 0.5 OR 1.0 MMOL/KG IN DIET STARTING 1 WK AFTER CARCINOGEN TREATMENT AND CONTINUING THROUGH THE END OF THE STUDY (STUDY D, Strain/Sex: SYRIAN/MALE, Target Tissue: Type of Lesion: LIVER: BENIGN TUMOR, Dose [Carcinogen]: 40 MG/KG BW ONCE
  tumour outcome (control, treated, inhibition, significance): 5/24 (21%), 26/42 (62%), -195%, p<0.05
Carcinogen: N-NITROBIS(2-OXOPROPYL)AMINE, 60559-38-4, Dose [Inhibitor]: 0.5 OR 1.0 MMOL/KG IN DIET STARTING 1 WK AFTER CARCINOGEN TREATMENT AND CONTINUING THROUGH THE END OF THE STUDY (STUDY D, Strain/Sex: SYRIAN/MALE, Target Tissue: Type of Lesion: PANCREAS: DUCTULAR ADENOMA, Dose [Carcinogen]: 10 MG/KG BW ONCE
  tumour outcome (control, treated, inhibition, significance): 3/22 (14%), 16/37 (43%), -207%, not significant
Carcinogen: N-NITROBIS(2-OXOPROPYL)AMINE, 60559-38-4, Dose [Inhibitor]: 0.5 OR 1.0 MMOL/KG IN DIET STARTING 1 WK AFTER CARCINOGEN TREATMENT AND CONTINUING THROUGH THE END OF THE STUDY (STUDY D, Strain/Sex: SYRIAN/MALE, Target Tissue: Type of Lesion: PANCREAS: DUCTULAR ADENOMA, Dose [Carcinogen]: 40 MG/KG BW ONCE
  tumour outcome (control, treated, inhibition, significance): 8/24 (33%), 34/42 (81%), -145%, not significant
Carcinogen: N-NITROBIS(2-OXOPROPYL)AMINE, 60559-38-4, Dose [Inhibitor]: 0.5 OR 1.0 MMOL/KG IN DIET STARTING 1 WK AFTER CARCINOGEN TREATMENT AND CONTINUING THROUGH THE END OF THE STUDY (STUDY D, Strain/Sex: SYRIAN/MALE, Target Tissue: Type of Lesion: PANCREAS: DUCTULAR CARCINOMA, Dose [Carcinogen]: 10 MG/KG BW SINGLE INJECTION
  tumour outcome (control, treated, inhibition, significance): 4/22 (18%), 7/37 (19%), -6%, not significant
Carcinogen: N-NITROBIS(2-OXOPROPYL)AMINE, 60559-38-4, Dose [Inhibitor]: 0.5 OR 1.0 MMOL/KG IN DIET STARTING 1 WK AFTER CARCINOGEN TREATMENT AND CONTINUING THROUGH THE END OF THE STUDY (STUDY D, Strain/Sex: SYRIAN/MALE, Target Tissue: Type of Lesion: PANCREAS: DUCTULAR CARCINOMA, Dose [Carcinogen]: 40 MG/KG BW ONCE
  tumour outcome (control, treated, inhibition, significance): 5/24 (21%), 20/42 (48%), -129%, not significant
Carcinogen: N-NITROSOBIS(2-OXYPROPYL)AMINE, 60599-38-4, Dose [Inhibitor]: 0.05, 0.1 OR 0.2 MILLIMOLAR/KG DIET FOR 32 WK STARTING 1 WK AFTER CARCINOGEN DOSE (STUDY DURATION: 33 WK), Strain/Sex: SYRIAN/FEMALE, Target Tissue: Type of Lesion: LIVER: ADENOMA, Dose [Carcinogen]: 40 MG/KG ONCE
  tumour outcome (control, treated, inhibition, significance): 6/10 (60%), 6/29 (21%), 65%, p<0.025
